Series [1] has as its target bovine serum albumin (BSA) (Bos taurus, UniProt P02769). Description: spectrophotometric metachromatic shift titration. Type of series: binding.
The target in series [2] is T1, CD40L (CD154) (Homo sapiens, UniProt P29965).
T1 sequence (P29965 108-261): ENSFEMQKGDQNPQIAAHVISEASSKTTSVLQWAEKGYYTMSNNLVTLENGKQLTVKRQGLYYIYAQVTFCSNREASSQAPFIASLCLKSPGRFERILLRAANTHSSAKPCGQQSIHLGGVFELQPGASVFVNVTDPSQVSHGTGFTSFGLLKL
Briefly: spectrophotometric metachromatic shift titration. Type of series: binding.

Series [3] concerns the molecule itself. Description: SEC. In general terms: In gel filtration, larger molecules generally elute earlier.

As usually defined, the Kd is the free concentration of one partner at which half of the binding sites on the other are occupied at equilibrium, for simple one-to-one binding. One may read the stoichiometry N as the number of molecules, sites or subunits per partner or assembly.

Sequence of bovine serum albumin (BSA) (P02769 25-607): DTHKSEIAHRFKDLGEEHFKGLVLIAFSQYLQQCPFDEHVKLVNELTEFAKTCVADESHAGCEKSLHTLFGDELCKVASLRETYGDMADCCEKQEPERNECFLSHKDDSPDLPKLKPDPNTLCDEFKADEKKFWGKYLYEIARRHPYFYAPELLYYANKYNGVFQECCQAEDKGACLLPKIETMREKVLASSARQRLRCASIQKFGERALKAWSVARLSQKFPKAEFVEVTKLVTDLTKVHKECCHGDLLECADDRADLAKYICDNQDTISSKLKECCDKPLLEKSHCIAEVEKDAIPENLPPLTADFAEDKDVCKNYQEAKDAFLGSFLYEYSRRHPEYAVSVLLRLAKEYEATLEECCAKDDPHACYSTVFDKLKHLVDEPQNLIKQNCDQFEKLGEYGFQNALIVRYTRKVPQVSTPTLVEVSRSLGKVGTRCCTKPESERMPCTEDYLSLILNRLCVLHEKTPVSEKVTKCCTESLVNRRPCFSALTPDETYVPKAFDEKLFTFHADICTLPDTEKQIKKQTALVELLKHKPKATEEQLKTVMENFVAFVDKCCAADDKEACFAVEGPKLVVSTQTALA

With `O=C1OC2(c3ccccc31)c1cc(I)c(O)c(I)c1Oc1c2cc(I)c(O)c1I` [ErB, erythrosine B], the Kd in series [1] was found to be 14 µM; in series [2], 20 µM.

B1: recombinant human histidine-tagged extracellular CD40L (ligand, UniProt P29965 108-261, looked up)
chain: T1 sequence (P29965 108-261)
With B1, the “stoichiometry N” value in series [3] came to 3.

These data come from article PMC3618669 (Journal of molecular recognition : JMR, 2013).
